Measured values: ChEMBL document CHEMBL1201862, “PubChem BioAssay data set” (2004)
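Cultured in 96-well plates, cells were exposed to test compound for 48 hours across five concentrations. GI50 marks 50% less growth.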 The source made the active and inactive calls. Rule as the data show it: active = GI50 up to about 1.1 µM and inactive = higher.

Assays:
Assay in all cases: DTP human tumour cell line panel, 48 h
A549 = system: A549
BT-549 = system: BT-549
DU-145 = system: DU-145
HCC 2998 = system: HCC 2998
K562 = system: K562
NCI-H23 = system: NCI-H23
NCI-H460 = system: NCI-H460
OVCAR-4 = system: OVCAR-4
OVCAR-5 = system: OVCAR-5
RPMI-8226 = system: RPMI-8226
SF-268 = system: SF-268
SF-295 = system: SF-295
SK-MEL-28 = system: SK-MEL-28
SK-MEL-5 = system: SK-MEL-5
SN12C = system: SN12C
SNB-19 = system: SNB-19
UO-31 = system: UO-31

| SMILES | GI50 (A549) | GI50 (BT-549) | GI50 (DU-145) | GI50 (HCC 2998) | GI50 (K562) | GI50 (NCI-H23) | GI50 (NCI-H460) | GI50 (OVCAR-4) | GI50 (OVCAR-5) | GI50 (RPMI-8226) | GI50 (SF-268) | GI50 (SF-295) | GI50 (SK-MEL-28) | GI50 (SK-MEL-5) | GI50 (SN12C) | GI50 (SNB-19) | GI50 (UO-31) |
| --- | --- | --- | --- | --- | --- | --- | --- | --- | --- | --- | --- | --- | --- | --- | --- | --- | --- |
| O=C(Nc1ccc2cc3ccccc3cc2c1)c1cc2c(cc1Cl)Sc1nccn1S2(=O)=O | 13.6 µM (inactive) | 32.5 µM (inactive) | 20.6 µM (inactive) | 6.84 µM (inactive) | 10.8 µM (inactive) | 46.5 µM (inactive) | 28.7 µM (inactive) | 10.3 µM (inactive) | 21.7 µM (inactive) | > 100 µM (inactive) | 15.3 µM (inactive) | 13.4 µM (inactive) | 19.1 µM (inactive) | 7.93 µM (inactive) | 60.3 µM (inactive) | 25.1 µM (inactive) | 68.5 µM (inactive) |
| CCNC(=O)c1c(O)nc2ccccc2c1O | 55.6 µM (inactive) | 78.2 µM (inactive) | 80.9 µM (inactive) | > 100 µM (inactive) | 39.8 µM (inactive) | > 100 µM (inactive) | 34.9 µM (inactive) | 70.6 µM (inactive) | 42.4 µM (inactive) | 17.6 µM (inactive) | 63.4 µM (inactive) | 80.9 µM (inactive) | > 100 µM (inactive) | 43.5 µM (inactive) | 67.6 µM (inactive) | 83.9 µM (inactive) | 73.5 µM (inactive) |
| O=C(/C=C/c1ccccc1)CSc1nc2ccc(I)cc2c(=O)n1Cc1ccccc1 | 39.9 µM (inactive) | > 77.4 µM (inactive) | 15.2 µM (inactive) | 19.3 µM (inactive) | 13.9 µM (inactive) | 18.1 µM (inactive) | 15.6 µM (inactive) | 21.3 µM (inactive) | > 100 µM (inactive) | 13.6 µM (inactive) | 14.8 µM (inactive) | 14 µM (inactive) | 99.5 µM (inactive) | 12.7 µM (inactive) | 9.86 µM (inactive) | 42.6 µM (inactive) | 0.13 µM (active) |
| COc1ccc(C(O)/C(=N/N)c2nc3ccc(Cl)cc3nc2O)cc1 (configuration not stated) | > 100 µM (inactive) | > 100 µM (inactive) | > 100 µM (inactive) | > 100 µM (inactive) | > 100 µM (inactive) | > 100 µM (inactive) | > 100 µM (inactive) | > 100 µM (inactive) | > 100 µM (inactive) | 97.7 µM (inactive) | > 100 µM (inactive) | > 100 µM (inactive) | > 100 µM (inactive) | > 100 µM (inactive) | > 100 µM (inactive) | > 100 µM (inactive) | > 100 µM (inactive) |
| O=C(/C=C/c1ccc(OCc2cccc(Cl)c2)cc1)NO | 18.9 µM (inactive) | 24.8 µM (inactive) | 15.3 µM (inactive) | 14.2 µM (inactive) | 16.6 µM (inactive) | 11.2 µM (inactive) | 15.9 µM (inactive) | 13.5 µM (inactive) | 13.9 µM (inactive) | 7.48 µM (inactive) | 24.3 µM (inactive) | 17.9 µM (inactive) | 26.2 µM (inactive) | 16.4 µM (inactive) | 20.6 µM (inactive) | 18 µM (inactive) | 4.78 µM (inactive) |
| COc1ccccc1Cc1ccc(C2C=CC3(CC(=O)C=C3C)C(=O)C2)o1 (configuration not stated) | 33.9 µM (inactive) | 20.6 µM (inactive) | 29.4 µM (inactive) | 28.1 µM (inactive) | 20 µM (inactive) | 21 µM (inactive) | 30.5 µM (inactive) | 31 µM (inactive) | 50.8 µM (inactive) | 17.4 µM (inactive) | 20.3 µM (inactive) | 22.1 µM (inactive) | 34.4 µM (inactive) | 15.6 µM (inactive) | 22 µM (inactive) | 47.2 µM (inactive) | 29.1 µM (inactive) |
| CCOC(=O)/C=C(\C(=O)OCC)n1ccc(N)nc1=O | > 100 µM (inactive) | 38.6 µM (inactive) | > 100 µM (inactive) | > 100 µM (inactive) | 67.9 µM (inactive) | > 100 µM (inactive) | > 100 µM (inactive) | 72.9 µM (inactive) | 33 µM (inactive) | > 100 µM (inactive) | > 99.8 µM (inactive) | > 100 µM (inactive) | 1.34 µM (inactive) | > 100 µM (inactive) | > 100 µM (inactive) | > 100 µM (inactive) | > 100 µM (inactive) |
| COC12COC(=O)C1C(c1ccc3c(c1)OCO3)c1cc3c(cc1O2)OCO3 (configuration not stated) | 16.7 µM (inactive) | 15.6 µM (inactive) | 25 µM (inactive) | 15.6 µM (inactive) | 4.21 µM (inactive) | 35.6 µM (inactive) | 10.5 µM (inactive) | 36.5 µM (inactive) | > 73.1 µM (inactive) | 14.4 µM (inactive) | 27.9 µM (inactive) | 6.95 µM (inactive) | 32.8 µM (inactive) | 11.2 µM (inactive) | 40 µM (inactive) | 54.1 µM (inactive) | 28.4 µM (inactive) |
| COC(=O)[C@H](Cc1ccccc1)NC(=O)N1CCCN(C(=O)N[C@@H](Cc2ccccc2)C(=O)OC)CCCN(C(=O)N[C@@H](Cc2ccccc2)C(=O)OC)CCC1 | 27.9 µM (inactive) | 31.1 µM (inactive) | 18.4 µM (inactive) | 18.1 µM (inactive) | 61.1 µM (inactive) | 27.2 µM (inactive) | 27.7 µM (inactive) | 20.7 µM (inactive) | 15.7 µM (inactive) | 32.1 µM (inactive) | 17.5 µM (inactive) | 17.8 µM (inactive) | 19.4 µM (inactive) | 19.4 µM (inactive) | 19.6 µM (inactive) | 27.7 µM (inactive) | 15.9 µM (inactive) |
| CCOC(=O)c1ccc(C(=O)/C(C(C)=O)=C2\CCCN2C)n1C | > 100 µM (inactive) | > 100 µM (inactive) | > 100 µM (inactive) | > 100 µM (inactive) | 62.7 µM (inactive) | 90.6 µM (inactive) | > 100 µM (inactive) | 71.1 µM (inactive) | > 100 µM (inactive) | 61.2 µM (inactive) | > 100 µM (inactive) | 56.9 µM (inactive) | > 100 µM (inactive) | 42.9 µM (inactive) | > 100 µM (inactive) | 73.3 µM (inactive) | > 100 µM (inactive) |
| Cc1ccc(/C=C/c2n[nH]c(N/N=C/c3ccc4c(c3)OCO4)nc2=O)cc1 | 38.5 µM (inactive) | 17.9 µM (inactive) | 19.4 µM (inactive) | 22.3 µM (inactive) | 30.1 µM (inactive) | 15.4 µM (inactive) | 24.9 µM (inactive) | 19.3 µM (inactive) | > 100 µM (inactive) | 67.8 µM (inactive) | 17.2 µM (inactive) | 33.7 µM (inactive) | 16 µM (inactive) | 30.1 µM (inactive) | 18.5 µM (inactive) | 18.5 µM (inactive) | 88.7 µM (inactive) |
| CC1C(C)(C)C23CC12C1(OCCO1)C3Br (configuration not stated) | > 100 µM (inactive) | > 100 µM (inactive) | > 100 µM (inactive) | > 100 µM (inactive) | > 100 µM (inactive) | > 100 µM (inactive) | > 100 µM (inactive) | > 100 µM (inactive) | > 100 µM (inactive) | > 100 µM (inactive) | > 100 µM (inactive) | > 100 µM (inactive) | > 100 µM (inactive) | > 100 µM (inactive) | > 100 µM (inactive) | > 100 µM (inactive) | 11.2 µM (inactive) |
| CNC(=O)c1ccc(C(=O)NCCCCCN(O)C(=O)CCC(=O)NCCCCCN(O)C(=O)CCC(=O)NCCCCCN(O)C(C)=O)c(O)c1O | 54.7 µM (inactive) | 56.6 µM (inactive) | 55.1 µM (inactive) | > 100 µM (inactive) | 65 µM (inactive) | 65.9 µM (inactive) | 36.1 µM (inactive) | 1.07 µM (active) | > 100 µM (inactive) | 38.5 µM (inactive) | 23.1 µM (inactive) | 42.6 µM (inactive) | 42 µM (inactive) | 33.7 µM (inactive) | 94.6 µM (inactive) | 62.7 µM (inactive) | 24.3 µM (inactive) |
| Cc1ccc([N+](=O)[O-])cc1S(=O)(=O)Nc1ccc(C2=NN(S(=O)(=O)c3cc([N+](=O)[O-])ccc3C)C(c3cccs3)C2)cc1 (configuration not stated) | 32.7 µM (inactive) | 38.6 µM (inactive) | 51.3 µM (inactive) | 22.9 µM (inactive) | 24.2 µM (inactive) | 21.8 µM (inactive) | 28.2 µM (inactive) | 37.4 µM (inactive) | 74 µM (inactive) | 21.9 µM (inactive) | 28.1 µM (inactive) | 21.2 µM (inactive) | 65.8 µM (inactive) | 29 µM (inactive) | 33.7 µM (inactive) | 45.2 µM (inactive) | 34.5 µM (inactive) |
| CCOC(OCC)N1C(=O)C2(C(OCC)OCC)CC3C(OC(=O)N3N)c3cccc1c32 (configuration not stated) | > 100 µM (inactive) | > 100 µM (inactive) | > 100 µM (inactive) | > 100 µM (inactive) | > 10 µM (inactive) | > 100 µM (inactive) | > 100 µM (inactive) | > 100 µM (inactive) | > 100 µM (inactive) | > 100 µM (inactive) | > 100 µM (inactive) | > 100 µM (inactive) | > 100 µM (inactive) | > 100 µM (inactive) | > 100 µM (inactive) | > 100 µM (inactive) | > 100 µM (inactive) |
| N=C(N)N/N=C/c1c(Cl)nc2sccn12 | 30.5 µM (inactive) | 26.9 µM (inactive) | 44.4 µM (inactive) | 16.9 µM (inactive) | 25.6 µM (inactive) | 46.6 µM (inactive) | 16.7 µM (inactive) | 19.2 µM (inactive) | 28.8 µM (inactive) | 19.4 µM (inactive) | 24.2 µM (inactive) | 21.4 µM (inactive) | 35.4 µM (inactive) | 15.8 µM (inactive) | 38.5 µM (inactive) | 35.8 µM (inactive) | 34.7 µM (inactive) |
